We go through one compound from US20170136008A1, “OXABICYCLOHEPTANES AND OXABICYCLOHEPTENES FOR THE TREATMENT OF OVARIAN CANCER” (priority 2014, published 2017).

A word on the IC50: it is the point on the concentration scale where inhibition reaches its midpoint.

For assay [1], the system named is OVCAR-8 PP2Ac shRNA-expressing cells. Briefly: Cell viability (MTT) assay, OVCAR-8 PP2Ac shRNA. The format is cell-based, human. Conditions: Homo sapiens; OVCAR-8 PP2Ac shRNA (knockdown). The procedure:
(§1) Cell survival was measured by the 3-(4,5-dimethylthiazol-2-yl)-2,5-diphenyltetrazolium bromide (MTT, Invitrogen) assay. Cells were seeded at a density of 5,000 cells per well in 96-well plates and incubated at 37° C. in humidified 5% CO2 for 24 hours. The 50% inhibitory concentration (IC50) values were defined as the drug concentrations required to reduce cellular proliferation to 50% of the untreated control well. […] All MTT assays were carried out according to the manufacturer's instructions (Molecular Probes, Eugen, Oreg.). Absorbance values were determined at […] on a Spectra Max 250 spectrophotometer (Molecular Devices, Sunnyvale, Calif.). All MTT assays were performed in triplicate. […] Cells were treated with both drugs for 72 h. Cell viability was analyzed via the MTT assay as described above. Experiments were performed in triplicate, and the data are presented as a percent mean±SD.
To stably knockdown expression of PP2AC, a pLKO.1-puro plasmid-based […] shRNA targeting the sequence: […] (clone ID:TRCN0000002483, Sigma-Aldrich) was employed (PP2AC-shRNA). Additionally, a non-targeting shRNA plasmid (NT-shRNA) that targets no known human sequence was utilized as a control. […]

The test system of assay [2] is ovarian cancer cell lines. Briefly: MTT cytotoxicity assay, ovarian cancer cell line panel. The format is cell-based. Conditions: Homo sapiens, SK-OV-3; ovarian lines other than SKOV-3. On the procedure: as §1
SKOV-3 and OVCAR-8 cells have previously been described as p53 null and harboring an inactivating p53 mutation, respectively (Debernardis, D. et al. 1997). […] The […] carry a BRCA2 missense (n) and STOP (s) mutation, respectively (Langdon, S. P. et al. 1988).
In general terms: Formazan colour is commonly taken as a measure of viable cells.

For assay [3], the system named is PEO6 ovarian cancer cell line. The assay can be described thus: MTT cytotoxicity assay, PEO6. The format is cell-based, human. The conditions noted are these: Homo sapiens, read-out: IC50, viability of ovarian cancer cell line. The procedure: SKOV-3 ovarian cancer cells were purchased from American Type Culture Collection (ATCC) (Manassas, Va.). SKOV-3 cells were cultured in McCoy's 5A medium (ATCC, Manassas, Va.) supplemented with 10% fetal bovine serum and 100 units/mL penicillin G sodium, 100 ug/mL streptomycin sulfate, and 292 μg/ml, L-glutamine (BioWhittaker, Wakersville, Md.). Luciferase-expressing cells were generated by infecting SKOV-3 cells with pCLNCX-luciferase retrovirus (SKOV-3-Luc) as previously reported (Wei, B. R. et al. 2009). Human OVCAR-8 ovarian cancer cells were provided by the National Cancer Institute (part of the NCI-60 collection). The PEO1, PEO4, and PEO6 ovarian cancer cell lines have previously been characterized (Langdon, S. P. et al. 1988) and were kindly provided by Dr. Ian Goldlust (National Center for Advancing Translational Sciences, Shady Grove, Md.). […]
Cell survival was measured by the 3-(4,5-dimethylthiazol-2-yl)-2,5-diphenyltetrazolium bromide (MTT, Invitrogen) assay. […] Absorbance values were determined at […] on a Spectra Max 250 spectrophotometer (Molecular Devices, Sunnyvale, Calif.). […] Cell viability was analyzed via the MTT assay as described above. […]

For assay [4], the system named is SKOV-3/f-Luc intraperitoneal xenografts. The assay can be described thus: In vivo intraperitoneal ovarian cancer model. Details: species or system mouse. The procedure:
Five- to seven-week-old female nude athymic mice (nu/nu) were obtained from NCI (Frederick, Md.), maintained in accredited animal facilities and used as stipulated by the U.S. Public Health Service Policy on Humane Care and Use of Laboratory Animals, in accordance with institutional reviews (http://oacu.odnih.gov). 10^6 SKOV-3/f-Luc cells were suspended in 100 μL PBS and injected into the intraperitoneal (i.p.) cavity. […] Following tumor inoculation, mice were dosed on days 4, 6, 8, 10, 12 and 14. Dose and treatment schedule were established based on the activity of each agent reported in previous studies (Wei, D. et al. 2013; Lu, J. et al. 2009; Mabuchi, S. et al. 2007). […] Tumor growth was measured twice a week via bioluminescence imaging (BLI) as previously described (Bakhsheshian, J. et al. 2013). D-Luciferin (150 mg/kg, 3 mg/100 μL PBS) was administered via I.P. injection. Relative intensity of the BLI signal for each mouse was calculated by dividing the total luminescence for each session by the total luminescence measured on day 1 of treatment. Mice were continuously observed until indicated euthanasia endpoints (e.g. significant weight loss, ascites). Toxicity of the treatment regimens was assessed by the degree of weight loss and the overall health status was continuously monitored by a veterinarian on staff. […] After 4 h, mice were euthanized and tumors were dissected from the intraperitoneal cavity, snap-frozen in liquid nitrogen, and lysed as described above.
Tumors were established in nude athymic female mice via i.p. injection of SKOV-3 cells transfected with firefly luciferase. […] Following the final treatment, mice were observed until pre-determined health concerns necessitated euthanization. Dose and treatment schedules were determined from biologic profiles of each agent determined in previous studies (Wei, D. et al. 2013; Lu, J. et al. 2009; Mabuchi, S. et al. 2009) and disease progression was monitored by BLI.

Some results are limits rather than exact numbers.

Turning to `CN1CCN(C(=O)C2C(C(=O)O)[C@H]3CC[C@@H]2O3)CC1` (stereo partly drawn) [LB100], the IC50 in assay [1] was found to be 3.9 ± 0.9 µM; in assay [2], 5.7 µM; in assay [3], 5.1 ± 0.2 µM. Further, the “day by which massive ascites developed, necessitating euthanasia” value in assay [4] (LB100 alone 1.5 mg/kg i.p.) was at most 25 days. Further, the “tumor growth as assessed by BLI” value in assay [4] (LB100 alone 1.5 mg/kg i.p.) is reported as “did not alter tumor growth”. Further, the “relative intensity of BLI signal (vs day 1 of treatment)” value in assay [4] (day 25, each drug 1.5 mg/kg i.p., 6 doses every other day, LB100 1 h before cisplatin in combination) amounted to 12.4±6.7.
